Results from patent US4849425A, “Readily absorbable pharmaceutical composition” (Ishihara Sangyo Kaisha Ltd., priority 1985, dated 1989).

Assays:
[1] = Absorbability through the gut, oral suspension in cyclodextrin solutions, plasma concentration in rats (Test Example 3); assay type: in vivo, Wistar male rats; details: 40% dimethyl β-type cyclodextrin vs control (0.5% sodium carboxymethyl cellulose), 20 mg/kg, rat
Experimental: (§1) 20 mg of Compound No. 3 was taken into a mortar, and 5 ml of an aqueous solution containing 1.7% of β-type cyclodextrin or 2% or 40% of dimethyl β-type cyclodextrin was added under stirring to obtain a suspension of Compound No. 3. The suspension was orally administered by an oral sonde to a group of three Wistar male rats (body weight: 200-250g). The dose of Compound No. 3 was 20 mg/kg rat body weight. Further, Compound No. 3 was likewise suspended in an aqueous solution containing 0.5% of sodium salt of carboxymethyl cellulose, and the suspension was used as the control ( in FIG. 3). After the administration, the blood was periodically sampled, and the plasma was separated. After the removal of protein by acetonitrile, Compound No. 3 in the plasma was quantitatively analyzed by a high speed liquid chromatography as shown in Test Example 1.

[2] = Absorbability through the gut, oral, aqueous and non-aqueous dispersing solvents, plasma concentration in rats (Test Example 5); assay type: in vivo, Wistar male rats; details: rat; for absorption: oral; for concentration at 1 h / concentration at 3 h / concentration at 5 h / concentration at 24 h: plasma, po, 20 mg/kg
Experimental: as §1
The changes with time of the concentration of Compound No. 3 in the plasma after the oral administration were studied in the same manner as in Test Example 3 by using an aqueous solution of 10% (weight/volume) hydroxypropyl cellulose (HPC-L, manufactured by Nippon Soda Co., Ltd.), 2.5% (weight/volume) methyl cellulose (Metrose SM 15,manufactured by Shin-Etsu Chemical Co., Ltd.), 10% (weight/volume) hydroxypropylmethyl cellulose (Metrose TC5R, manufactured by Shin-Etsu Chemical Co., Ltd.), 2.5% (weight/volume) sodium salt of carboxymethyl cellulose (manufactured by Wako Junyaku K.K.), 10% (weight/volume) sucrose fatty acid ester (P1570, manufactured by Hishito K.K.) or 10% (weight/volume) pluronic F 68 (manufactured by Asahi Denka Kogyo K.K.), as an aqueous dispersing solvent for Compound No. 3, and medium-chain length fatty acid triglyceride (ODO, manufactured by Nisshin Seiyu K.K.), ODO containing 5% (weight/volume) sucrose fatty acid ester (S-370F, manufactured by Hishito K.K.), or a refined soybean oil (The Green Cross Corporation) or refined sesame oil (Takemoto Yushi K.K.) containing 5% (weight/volume) of S-370F, as a non-aqueous dispersing solvent, and an aqueous solution of 50% (weight/volume) dimethyl β-type cyclodextrin and an aqueous solution of 0.5% (weight/volume) sodium carboxymethyl cellulose, as the control.

[3] = Rectal suppository, plasma concentration in rats (Test Example 6); assay type: in vivo, Wistar male rat; details: rat; for Concentration in the plasma / concentration at 0.5 h / concentration at 1 h / concentration at 2 h / concentration at 4 h: rectal; for Concentration in the plasma: 0; for concentration at 0.5 h / concentration at 1 h / concentration at 2 h / concentration at 4 h: plasma
Experimental: A Witepsol W-35 suppository (weight: about 45 mg) comprising 1.8 mg of Compound No. 3 and 12.5% (weight/volume) of dimethyl β-type cyclodextrin, was administered to the rectum of each Wistar male rat having a body weight of about 90 g (a group of three rats). Then, the blood was periodically sampled from the jugular vein, and the concentration of Compound No. 3 in the plasma was measured. To a control group, a suppository contained no cyclodextrin was administered. It is evident that by the addition of dimethyl β-type cyclodextrin, the absorbability of Compound No. 3 increased.

[4] = 0.5% (w/v) sodium salt of carboxymethyl cellulose (control), oral 20 mg/kg
[5] = 2.5% (w/v) methyl cellulose, oral 20 mg/kg
[6] = 2.5% (w/v) sodium salt of carboxymethyl cellulose, oral 20 mg/kg
[7] = 5% (w/v) Pluronic F31/ODO, oral 20 mg/kg
[8] = 5% (w/v) sucrose fatty acid ester/ODO, oral 20 mg/kg
[9] = 5% (w/v) sucrose fatty acid ester/refined sesame oil, oral 20 mg/kg
[10] = 5% (w/v) sucrose fatty acid ester/refined soybean oil, oral 20 mg/kg
[11] = 10% (w/v) Pluronic F68, oral 20 mg/kg
[12] = 10% (w/v) hydroxypropyl cellulose, oral 20 mg/kg
[13] = 10% (w/v) hydroxypropylmethyl cellulose, oral 20 mg/kg
[14] = 10% (w/v) sucrose fatty acid ester, oral 20 mg/kg
[15] = 50% (w/v) dimethyl β-type cyclodextrin, oral 20 mg/kg
[16] = medium-chain length fatty acid triglyceride (ODO), oral 20 mg/kg
[17] = 1.8 mg, Witepsol W-35 suppository, 12.5% (w/v) dimethyl β-type cyclodextrin
[18] = 1.8 mg, control suppository without cyclodextrin

## O=C(NC(=O)c1ccccc1[N+](=O)[O-])Nc1ccc(Oc2ncc(Br)cn2)c(Cl)c1 [Compound No. 3, N-(2-nitrobenzoyl)-N'-[4-(5-bromo-2-pyrimidinyloxy)-3-chlorophenyl]urea]
[1]
  concentration in the plasma relative to the control: about 3.5 times
[2]; 50% (w/v) dimethyl β-type cyclodextrin, among the aqueous dispersing solvents
  absorption: highest absorption
[2]; ODO containing 5% (w/v) Pluronic F32
  absorption: high absorption
[2]; [4]
  concentration at 1 h: 30 ng/mL
  concentration at 3 h: 100 ng/mL
  concentration at 5 h: 150 ng/mL
  concentration at 24 h: 10 ng/mL
[2]; [5]
  concentration at 1 h: 60 ng/mL
  concentration at 3 h: 110 ng/mL
  concentration at 5 h: 110 ng/mL
  concentration at 24 h: 30 ng/mL
[2]; [6]
  concentration at 1 h: 40 ng/mL
  concentration at 3 h: 110 ng/mL
  concentration at 5 h: 90 ng/mL
  concentration at 24 h: 90 ng/mL
[2]; [7]
  concentration at 1 h: 100 ng/mL
  concentration at 3 h: 200 ng/mL
  concentration at 5 h: 220 ng/mL
  concentration at 24 h: 470 ng/mL
[2]; [8]
  concentration at 1 h: 60 ng/mL
  concentration at 3 h: 180 ng/mL
  concentration at 5 h: 200 ng/mL
  concentration at 24 h: 220 ng/mL
[2]; [9]
  concentration at 1 h: 140 ng/mL
  concentration at 3 h: 490 ng/mL
  concentration at 5 h: 570 ng/mL
  concentration at 24 h: 370 ng/mL
[2]; [10]
  concentration at 1 h: 120 ng/mL
  concentration at 3 h: 500 ng/mL
  concentration at 5 h: 550 ng/mL
  concentration at 24 h: 390 ng/mL
[2]; [11]
  concentration at 1 h: 110 ng/mL
  concentration at 3 h: 190 ng/mL
  concentration at 5 h: 230 ng/mL
  concentration at 24 h: 120 ng/mL
[2]; [12]
  concentration at 1 h: 50 ng/mL
  concentration at 3 h: 120 ng/mL
  concentration at 5 h: 110 ng/mL
  concentration at 24 h: 40 ng/mL
[2]; [13]
  concentration at 1 h: 140 ng/mL
  concentration at 3 h: 310 ng/mL
  concentration at 5 h: 280 ng/mL
  concentration at 24 h: 100 ng/mL
[2]; [14]
  concentration at 1 h: 40 ng/mL
  concentration at 3 h: 180 ng/mL
  concentration at 5 h: 180 ng/mL
  concentration at 24 h: 240 ng/mL
[2]; [15]
  concentration at 1 h: 280 ng/mL
  concentration at 3 h: 580 ng/mL
  concentration at 5 h: 490 ng/mL
  concentration at 24 h: 360 ng/mL
[2]; [16]
  concentration at 1 h: 120 ng/mL
  concentration at 3 h: 170 ng/mL
  concentration at 5 h: 210 ng/mL
  concentration at 24 h: 240 ng/mL
[2]; refined soybean oil or refined sesame oil containing 5% (w/v) sucrose fatty acid ester, among the non-aqueous dispersing solvents
  absorption: high absorption almost equal to dimethyl β-type cyclodextrin
[3]; Witepsol W-35 suppository, 1.8 mg, 12.5% (w/v) dimethyl β-type cyclodextrin
  Concentration in the plasma: 0 ng/mL
[3]; addition of dimethyl β-type cyclodextrin, rectal suppository
  absorbability: increased
[3]; control suppository without cyclodextrin
  Concentration in the plasma: 0 ng/mL
[3]; [17]
  concentration at 0.5 h: 320 ng/mL
  concentration at 1 h: 480 ng/mL
  concentration at 2 h: 940 ng/mL
  concentration at 4 h: 990 ng/mL
[3]; [18]
  concentration at 0.5 h: 40 ng/mL
  concentration at 1 h: 80 ng/mL
  concentration at 2 h: 110 ng/mL
  concentration at 4 h: 90 ng/mL
